According to article PMC10850145, “Hormonal steroids induce multidrug resistance and stress response genes in Neisseria gonorrhoeae by binding to MtrR” (Nature Communications, 2024):
Values joined by “and” are separate entries in the source; they are usually repeats but may differ in a detail not shown here. Equal entries are not always repeated. Where two headings read alike, the source gives them in different places.

Tested on: mtrC-lacZ expression
Format: cell-based, Neisseria gonorrhoeae
Conditions: for Plate-6 (Testosterone) Miller units, Mean / Plate-6 (Testosterone) Miller units: left (mtrC) half of sheet; for β-galactosidase activity, Mean / β-galactosidase activity, single replicate: mtrCDE block (c1-c37), ΔmtrR + mtrR R176E in trans
[1] = WT, testosterone 6.25 µM, right block Plate-4
[2] = WT, testosterone 25 µM, right block Plate-4
[3] = WT, testosterone 50 µM, right block Plate-4
[4] = fourth strain (lower plate half, wells 7-12; not named), testosterone 6.25 µM, right block Plate-4
[5] = fourth strain (lower plate half, wells 7-12; not named), testosterone 12.5 µM, right block Plate-4
[6] = mtrC-lacZ, ΔmtrR + mtrR D171A in trans, 6.25 µM hormone, single replicate
[7] = mtrC-lacZ, ΔmtrR + mtrR D171A in trans, 12.5 µM hormone, single replicate
[8] = mtrC-lacZ, ΔmtrR + mtrR D171A in trans, 25 µM hormone, single replicate
[9] = mtrC-lacZ, ΔmtrR + mtrR D171A in trans, 50 µM hormone, single replicate
[10] = mtrC-lacZ, ΔmtrR + mtrR WT in trans, 6.25 µM hormone, single replicate
[11] = mtrC-lacZ, ΔmtrR + mtrR WT in trans, 12.5 µM hormone, single replicate
[12] = mtrC-lacZ, ΔmtrR + mtrR WT in trans, 25 µM hormone, single replicate
[13] = mtrC-lacZ, ΔmtrR + mtrR WT in trans, 50 µM hormone, single replicate
[14] = mtrCDE, fourth strain (lower plate half, wells 7-12; not named), testosterone 1 µM, left block Plate-4
[15] = mtrCDE, fourth strain (lower plate half, wells 7-12; not named), testosterone 10 µM, left block Plate-4
[16] = mtrCDE, fourth strain (lower plate half, wells 7-12; not named), testosterone 25 µM, left block Plate-4
[17] = mtrCDE, fourth strain (lower plate half, wells 7-12; not named), testosterone 50 µM, left block Plate-4
[18] = mtrCDE, fourth strain (lower plate half, wells 7-12; not named), testosterone 100 µM, left block Plate-4

## C[C@]12CC[C@H]3[C@@H](CCC4=CC(=O)CC[C@@]43C)[C@@H]1CC[C@@H]2O [Testosterone, testosterone]
6.25 µM hormone, plate columns 1-6 (WT), mean of plate rows 1-4 (mtrC)
  Miller units, Mean: 141 Miller units
6.25 µM hormone, plate columns 1-6 (WT), plate rows 1-4 (mtrC), single well
  Miller units: 164 Miller units and 134 Miller units and 127 Miller units and 139 Miller units
6.25 µM hormone, plate columns 7-12 (second strain not given), plate rows 1-4 (mtrC), single well
  Miller units: 276 Miller units and 252 Miller units and 246 Miller units and 285 Miller units
6.25 µM hormone, plate columns 7-12 (second strain), mean of plate rows 1-4 (mtrC)
  Miller units, Mean: 265 Miller units
6.25 µM, plate column 3, mean of plate rows 5-8
  Plate-6 (Testosterone) Miller units, Mean: 43 Miller units
6.25 µM, plate column 3, plate rows 5-8, single wells
  Plate-6 (Testosterone) Miller units: 39 Miller units and 46 Miller units and 47 Miller units
6.25 µM, plate column 9, mean of plate rows 5-8
  Plate-6 (Testosterone) Miller units, Mean: 64 Miller units
6.25 µM, single wells
  Plate-6 (Testosterone) Miller units: 55 Miller units and 57 Miller units and 65 Miller units and 80 Miller units
12.5 µM hormone, plate columns 1-6 (WT), mean of plate rows 1-4 (mtrC)
  Miller units, Mean: 166 Miller units
12.5 µM hormone, plate columns 1-6 (WT), plate rows 1-4 (mtrC), single well
  Miller units: 186 Miller units and 164 Miller units and 155 Miller units and 161 Miller units
12.5 µM hormone, plate columns 7-12 (second strain not given), plate rows 1-4 (mtrC), single well
  Miller units: 296 Miller units and 248 Miller units and 237 Miller units and 196 Miller units
12.5 µM hormone, plate columns 7-12 (second strain), mean of plate rows 1-4 (mtrC)
  Miller units, Mean: 244 Miller units
12.5 µM, plate column 4, mean of plate rows 5-8
  Plate-6 (Testosterone) Miller units, Mean: 52 Miller units
12.5 µM, plate column 4, plate rows 5-8, single wells
  Plate-6 (Testosterone) Miller units: 51 Miller units and 50 Miller units and 56 Miller units and 52 Miller units
12.5 µM, plate column 10, mean of plate rows 5-8
  Plate-6 (Testosterone) Miller units, Mean: 62 Miller units
12.5 µM, plate column 10, plate rows 5-8, single wells
  Plate-6 (Testosterone) Miller units: 58 Miller units and 54 Miller units and 63 Miller units and 74 Miller units
25 µM hormone, plate columns 1-6 (WT), mean of plate rows 1-4 (mtrC)
  Miller units, Mean: 178 Miller units
25 µM hormone, plate columns 1-6 (WT), plate rows 1-4 (mtrC), single well
  Miller units: 189 Miller units and 186 Miller units and 165 Miller units and 170 Miller units
25 µM hormone, plate columns 7-12 (second strain not given), plate rows 1-4 (mtrC), single well
  Miller units: 284 Miller units and 276 Miller units and 289 Miller units and 254 Miller units
25 µM hormone, plate columns 7-12 (second strain), mean of plate rows 1-4 (mtrC)
  Miller units, Mean: 276 Miller units
25 µM, plate column 5, mean of plate rows 5-8
  Plate-6 (Testosterone) Miller units, Mean: 63 Miller units
25 µM, plate column 5, plate rows 5-8, single wells
  Plate-6 (Testosterone) Miller units: 68 Miller units and 55 Miller units and 57 Miller units and 70 Miller units
25 µM, plate column 11, mean of plate rows 5-8
  Plate-6 (Testosterone) Miller units, Mean: 65 Miller units
25 µM, plate column 11, plate rows 5-8, single wells
  Plate-6 (Testosterone) Miller units: 64 Miller units and 60 Miller units and 68 Miller units and 67 Miller units
50 µM hormone, plate columns 1-6 (WT), mean of plate rows 1-4 (mtrC)
  Miller units, Mean: 195 Miller units
50 µM hormone, plate columns 1-6 (WT), plate rows 1-4 (mtrC), single well
  Miller units: 222 Miller units and 215 Miller units and 166 Miller units and 177 Miller units
50 µM hormone, plate columns 7-12 (second strain not given), plate rows 1-4 (mtrC), single well
  Miller units: 310 Miller units and 287 Miller units and 255 Miller units and 237 Miller units
50 µM hormone, plate columns 7-12 (second strain), mean of plate rows 1-4 (mtrC)
  Miller units, Mean: 272 Miller units
50 µM, plate column 6, mean of plate rows 5-8
  Plate-6 (Testosterone) Miller units, Mean: 68 Miller units
50 µM, plate column 6, plate rows 5-8, single wells
  Plate-6 (Testosterone) Miller units: 76 Miller units and 71 Miller units and 62 Miller units and 63 Miller units
50 µM, plate column 12, mean of plate rows 5-8
  Plate-6 (Testosterone) Miller units, Mean: 57 Miller units
50 µM, single wells
  Plate-6 (Testosterone) Miller units: 65 Miller units and 49 Miller units and 56 Miller units and 58 Miller units
Mean of plate rows 1-4, plate columns 1-6 (first strain), 6.25 µM hormone
  Miller units, Mean: 69 Miller units
Mean of plate rows 1-4, plate columns 1-6 (first strain), 12.5 µM hormone
  Miller units, Mean: 81 Miller units
Mean of plate rows 1-4, plate columns 1-6 (first strain), 25 µM hormone
  Miller units, Mean: 98 Miller units
Mean of plate rows 1-4, plate columns 1-6 (first strain), 50 µM hormone
  Miller units, Mean: 117 Miller units
Mean of plate rows 1-4, plate columns 7-12 (second strain), 6.25 µM hormone
  Miller units, Mean: 96 Miller units
Mean of plate rows 1-4, plate columns 7-12 (second strain), 12.5 µM hormone
  Miller units, Mean: 102 Miller units
Mean of plate rows 1-4, plate columns 7-12 (second strain), 25 µM hormone
  Miller units, Mean: 112 Miller units
Mean of plate rows 1-4, plate columns 7-12 (second strain), 50 µM hormone
  Miller units, Mean: 119 Miller units
[1]
  Miller units, Mean: 81 Miller units
  Miller units, single replicate: 103 Miller units and 88 Miller units
WT, testosterone 12.5 µM, right block Plate-4
  Miller units, single replicate: 126 Miller units
[2]
  Miller units, Mean: 130 Miller units
  Miller units, single replicate: 144 Miller units and 138 Miller units
[3]
  Miller units, Mean: 134 Miller units
  Miller units, single replicate: 161 Miller units and 150 Miller units
Complemented (MtrR+) strains, increasing hormone
  induction of mtrC expression: could be induced
[4]
  Miller units, Mean: 47 Miller units
  Miller units, single replicate: 46 Miller units
[5]
  Miller units, Mean: 55 Miller units
  Miller units, single replicate: 56 Miller units
Fourth strain (lower plate half, wells 7-12; not named), testosterone 25 µM, right block Plate-4
  Miller units, Mean: 85 Miller units
Fourth strain (lower plate half, wells 7-12; not named), testosterone 50 µM, right block Plate-4
  Miller units, Mean: 79 Miller units
Loss of MtrR or MtrR-D171A strain
  induction of mtrC expression: abrogated
mtrC-lacZ, WT, 6.25 µM hormone
  Miller units, Mean: 141 Miller units
mtrC-lacZ, WT, 12.5 µM hormone
  Miller units, Mean: 166 Miller units
mtrC-lacZ, WT, 25 µM hormone
  Miller units, Mean: 178 Miller units
mtrC-lacZ, WT, 50 µM hormone
  Miller units, Mean: 195 Miller units
[6]
  Miller units: 162 Miller units
  β-galactosidase activity (Miller units): 162 Miller units and 167 Miller units and 161 Miller units and 191 Miller units
[7]
  Miller units: 176 Miller units
  β-galactosidase activity (Miller units): 176 Miller units and 177 Miller units and 161 Miller units and 186 Miller units
[8]
  Miller units: 185 Miller units
  β-galactosidase activity (Miller units): 185 Miller units and 179 Miller units and 168 Miller units and 147 Miller units
[9]
  Miller units: 166 Miller units
  β-galactosidase activity (Miller units): 166 Miller units and 158 Miller units and 156 Miller units
[10]
  Miller units: 108 Miller units and 127 Miller units and 114 Miller units and 153 Miller units
  β-galactosidase activity (Miller units): 108 Miller units and 127 Miller units and 114 Miller units and 153 Miller units
[11]
  Miller units: 125 Miller units and 124 Miller units and 120 Miller units and 149 Miller units
  β-galactosidase activity (Miller units): 125 Miller units and 124 Miller units and 120 Miller units and 149 Miller units
[12]
  Miller units: 133 Miller units and 137 Miller units and 127 Miller units
  β-galactosidase activity (Miller units): 133 Miller units and 137 Miller units and 127 Miller units
[13]
  Miller units: 146 Miller units and 140 Miller units and 175 Miller units
  β-galactosidase activity (Miller units): 146 Miller units and 140 Miller units and 175 Miller units
mtrC-lacZ, ΔmtrR strain, 6.25 µM hormone, single replicate
  β-galactosidase activity (Miller units): 246 Miller units
mtrC-lacZ, ΔmtrR strain, 12.5 µM hormone, single replicate
  β-galactosidase activity (Miller units): 237 Miller units
mtrC-lacZ, ΔmtrR strain, 25 µM hormone, single replicate
  β-galactosidase activity (Miller units): 289 Miller units
mtrC-lacZ, ΔmtrR strain, 50 µM hormone, single replicate
  β-galactosidase activity (Miller units): 255 Miller units
mtrC-lacZ, ΔmtrR, 6.25 µM hormone
  Miller units, Mean: 265 Miller units
mtrC-lacZ, ΔmtrR, 12.5 µM hormone
  Miller units, Mean: 244 Miller units
mtrC-lacZ, ΔmtrR, 25 µM hormone
  Miller units, Mean: 276 Miller units
mtrC-lacZ, ΔmtrR, 50 µM hormone
  Miller units, Mean: 272 Miller units
1 µM
  β-galactosidase activity, Mean: 178 Miller units
  β-galactosidase activity, single replicate: 184 Miller units and 192 Miller units and 127 Miller units and 209 Miller units
10 µM
  β-galactosidase activity, Mean: 206 Miller units
  β-galactosidase activity, single replicate: 290 Miller units and 186 Miller units and 155 Miller units and 194 Miller units
25 µM
  β-galactosidase activity, single replicate: 208 Miller units and 213 Miller units and 178 Miller units and 198 Miller units
50 µM
  β-galactosidase activity, Mean: 224 Miller units
  β-galactosidase activity, single replicate: 262 Miller units and 219 Miller units and 198 Miller units and 217 Miller units
100 µM
  β-galactosidase activity, Mean: 238 Miller units
  β-galactosidase activity, single replicate: 255 Miller units and 223 Miller units and 213 Miller units and 260 Miller units
mtrCDE, WT, testosterone 1 µM, left block Plate-4
  Miller units, Mean: 138 Miller units
mtrCDE, WT, testosterone 10 µM, left block Plate-4
  Miller units, Mean: 235 Miller units
mtrCDE, WT, testosterone 25 µM, left block Plate-4
  Miller units, Mean: 264 Miller units
mtrCDE, WT, testosterone 50 µM, left block Plate-4
  Miller units, Mean: 229 Miller units
mtrCDE, WT, testosterone 100 µM, left block Plate-4
  Miller units, Mean: 248 Miller units
[14]
  Miller units, Mean: 157 Miller units
  Miller units, single replicate: 182 Miller units
[15]
  Miller units, Mean: 190 Miller units
  Miller units, single replicate: 196 Miller units
[16]
  Miller units, Mean: 192 Miller units
  Miller units, single replicate: 225 Miller units and 177 Miller units
[17]
  Miller units, Mean: 201 Miller units
  Miller units, single replicate: 192 Miller units and 186 Miller units
[18]
  Miller units, Mean: 240 Miller units
  Miller units, single replicate: 256 Miller units and 229 Miller units
mtrCDE, third strain (lower plate half, wells 1-6; not named), testosterone 1 µM, left block Plate-4
  Miller units, Mean: 107 Miller units
mtrCDE, third strain (lower plate half, wells 1-6; not named), testosterone 10 µM, left block Plate-4
  Miller units, Mean: 177 Miller units
mtrCDE, third strain (lower plate half, wells 1-6; not named), testosterone 25 µM, left block Plate-4
  Miller units, Mean: 181 Miller units
mtrCDE, third strain (lower plate half, wells 1-6; not named), testosterone 50 µM, left block Plate-4
  Miller units, Mean: 213 Miller units
mtrCDE, third strain (lower plate half, wells 1-6; not named), testosterone 100 µM, left block Plate-4
  Miller units, Mean: 227 Miller units
mtrCDE, ΔmtrR, testosterone 1 µM, left block Plate-4
  Miller units, Mean: 334 Miller units
mtrCDE, ΔmtrR, testosterone 10 µM, left block Plate-4
  Miller units, Mean: 358 Miller units
mtrCDE, ΔmtrR, testosterone 50 µM, left block Plate-4
  Miller units, Mean: 284 Miller units
